{"source": "patent US20040037804A1", "about": "“Methods for treatment of asthma” (priority 2002, published 2004)", "test_system": "airway smooth muscle (ASM) tissues", "assay": "Isometric constrictor responsiveness to acetylcholine in isolated rabbit tracheal ASM rings (organ bath)", "type": "cell-based", "settings": "control (not cytokine-exposed) ASM, DEX 1 μM, 24 hours", "experimental": "Following general anesthesia with xylazine (10 mg/kg) and ketamine 50 mg/kg), NZW rabbits were sacrificed by air embolism and the tracheae were removed, cleaned of loose connective tissue and epithelium, and divided into ring segments.\nFollowing incubation, the ASM tissue segments were placed in organ baths containing modified Krebs Ringer solution, and aerated with 5% CO2 in oxygen at 37° C. The tissues' isometric cholinergic contractility was subsequently assessed by cumulative administration of acetylcholine (ACh; 10^−10 to 10^−3 M).", "data": [{"compound": "C[C@@H]1C[C@H]2[C@@H]3CCC4=CC(=O)C=C[C@]4(C)[C@@]3(F)[C@@H](O)C[C@]2(C)[C@@]1(O)C(=O)CO", "note": "[DEX, dexamethasone]", "values": [{"measurement": "effect on constrictor responses to ACh in control ASM", "result": "no effect"}]}]}
